Experimental findings from US20260347364A1, “PYRAZOLO[4,3-F]QUINAZOLINE DERIVATIVES AS MODULATORS OF G12D MUTANT KRAS USEFUL FOR THE TREATMENT OF CANCER” (JAZZ PHARMACEUTICALS IRELAND LTD., priority 2023, published 2026) are described below.

In general, IC50 refers to the concentration at which inhibition is half-maximal. A higher IC50 goes with weaker potency in that assay.

One assay addresses T1, KRAS G12D (Homo sapiens, UniProt P01116, G12D).
T1 construct: aa1-188 KRAS WT, HRAS WT, NRAS WT, or KRAS containing the G12D
Kind of assay: HTRF nucleotide exchange assay, KRAS G12D. Type of assay: biochemical. To be noted: class symbols; for IC50: HTRF nucleotide exchange assay (NEA). The procedure:
(§1) HTRF Nucleotide Exchange Assay Method
(§2) The capacity of compounds to bind KRAS G12D, other KRAS mutants and wildtype RAS isoforms was quantified using a HTRF nucleotide exchange assay. Recombinant human RAS protein (2 nM; aa1-188 KRAS WT, HRAS WT, NRAS WT, or KRAS containing the G12D, G13D or Q61H amino acid substitutions, or 4 nM KRAS; aa1-188 containing the G12V, G12C, G12A or G12S amino acid substitution, an N-terminal 6× His-tag and leader sequence), and 2 nM Europium-labeled anti-6× His antibody were mixed in assay buffer (10 mM HEPES pH 7.3, 150 mM NaCl, 5 mM MgCl2, 0.05% BSA, 0.0025% NP-40 and 100 mM KF) with various concentrations of compound in a 384-well plate and a volume of 5 μL. After a 60-minute incubation at room temperature, 5 μl of 200 nM EDA-GTP-DY647P1 (diluted in assay buffer) was added to the plate. Following 30-minute incubation at room temperature, time-resolved fluorescence was measured on a PerkinElmer Envision plate reader. DMSO (0.3%) and unlabeled GDP (1 μM) or equivalent tool compound were used to generate the Max and Min assay signals, respectively. Data was analysed using a four-parameter logistic model to calculate IC50 values, with at least two independent replicates were performed for each compound. The results are presented as IC50s in Table 29 where “A” corresponds to an IC50 ≤10 nM, “B” to an IC50 >10 nM up to 100 nM, “C” is >100 nM up to 10 μM, “D” represents <49% inhibition at 10 μM and ND=not determined: […]
A general note: Time-resolved FRET reads energy transfer from a long-lived donor to a nearby acceptor.

Another assay concerns the target T2, KRAS WT (Homo sapiens, UniProt P01116).
T2 construct: aa1-188 KRAS WT
The assay can be described thus: HTRF nucleotide exchange assay, KRAS WT. Type of assay: biochemical. To be noted: class symbols; for IC50: HTRF nucleotide exchange assay (NEA). Here is the method:
as §1, §2

On to `CCc1c(F)ccc2cc(O)cc(-c3cc4nc(OC[C@@]56CCCN5C[C@H](F)C6)nc(N5CCCCC(C)(O)C5)c4c4cn(C)nc34)c12` (stereo partly drawn) [Example 10, 1-[4-(8-ethyl-7-fluoro-3-hydroxy-1-naphthyl)-2-methyl-7-[[(2R,8S)-2-fluoro-1,2,3,5,6,7-hexahydropyrrolizin-8-yl]methoxy]pyrazolo[4,3-f]quinazolin-9-yl]-3-methyl-azepan-3-ol], for which the IC50 against KRAS G12D and at KRAS WT was no more than 0.01 µM in each case.

As to `C#Cc1c(F)ccc2cc(O)cc(-c3cc4nc(OC[C@@]56CCCN5C[C@H](F)C6)nc(N5CCOCC(C)(O)C5)c4c4cn(C)nc34)c12` (stereo partly drawn) [Example 11, 4-[4-(8-ethynyl-7-fluoro-3-hydroxy-1-naphthyl)-2-methyl-7-[[(2R,8S)-2-fluoro-1,2,3,5,6,7-hexahydropyrrolizin-8-yl]methoxy]pyrazolo[4,3-f]quinazolin-9-yl]-6-methyl-1,4-oxazepan-6-ol], the IC50 against KRAS G12D and at KRAS WT was no more than 0.01 µM throughout.

Regarding `CCc1c(F)ccc2cc(O)cc(-c3cc4nc(OC[C@@]56CCCN5C[C@H](F)C6)nc(N5CCNCC5)c4c4cn(C)nc34)c12` [Example 13, 5-ethyl-6-fluoro-4-[2-methyl-9-piperazin-1-yl-7-[[(2R,8S)-2-fluoro-1,2,3,5,6,7-hexahydropyrrolizin-8-yl]methoxy]pyrazolo[4,3-f]quinazolin-4-yl]naphthalen-2-ol], the IC50 against KRAS G12D fell in the range of 0.01 to 0.1 µM; against KRAS WT, 0.1 to 10 µM.

Take `CCc1c(F)ccc2cc(O)cc(-c3cc4nc(OC[C@@]56CCCN5C[C@H](F)C6)nc(N5CC6CCC(C5)N6)c4c4cn(C)nc34)c12` [Example 15]: the results for the IC50 at KRAS G12D and against KRAS WT were no more than 0.01 µM and 0.01 to 0.1 µM, respectively.

`Cc1cc(N)nc(-c2cc3nc(OCC45CCCN4CC(F)C5)nc(N4CCCOCC4)c3c3cn(C)nc23)c1C(F)(F)F` [Example 16, 4-methyl-6-[2-methyl-9-(1,4-oxazepan-4-yl)-7-[(2R,8S)-2-fluoro-1,2,3,5,6,7-hexahydropyrrolizin-8-yl]methoxy]pyrazolo[4,3-f]quinazolin-4-yl]-5-(trifluoromethyl)pyridin-2-amine]: the “KRAS^G12D NEA” value on KRAS G12D is on record as “D (<49% inhibition at 10 μM)”. The “KRAS^WT NEA” value at KRAS WT is “D (<49% inhibition at 10 μM)”.

Turning to `CCc1c(F)ccc2cc(O)cc(-c3cc4nc(OC[C@@]56CCCN5C[C@H](F)C6)nc(N5CC6C(=O)NC(=O)C6C5)c4c4cn(C)nc34)c12` (stereo partly drawn) [Example 17, 5-[4-(8-ethyl-7-fluoro-3-hydroxy-1-naphthyl)-2-methyl-7-[[(2R,8S)-2-fluoro-1,2,3,5,6,7-hexahydropyrrolizin-8-yl]methoxy]pyrazolo[4,3-f]quinazolin-9-yl]-3a,4,6,6a-tetrahydropyrrolo[3,4-c]pyrrole-1,3-dione], the IC50 on KRAS G12D and at KRAS WT was no more than 0.01 µM in each case.

As for `CCc1c(F)ccc2cc(O)cc(-c3cc4nc(OCC5CCCN5C)nc(N5CCCOCC5)c4c4cn(C)nc34)c12` (stereo not drawn) [Example 18, 5-ethyl-6-fluoro-4-[2-methyl-7-[(1-methylpyrrolidin-2-yl)methoxy]-9-(1,4-oxazepan-4-yl)pyrazolo[4,3-f]quinazolin-4-yl]naphthalen-2-ol], the half-inhibitory concentration (IC50) against KRAS G12D and on KRAS WT was 0.01 to 0.1 µM each time.

For the compound `CCc1c(F)ccc2cc(O)cc(-c3cc4nc(OCC5CCCCN5C)nc(N5CCCOCC5)c4c4cn(C)nc34)c12` (stereo not drawn) [Example 19, 5-ethyl-6-fluoro-4-[2-methyl-7-[(1-methyl-2-piperidyl)methoxy]-(1,4-oxazepan-4-yl)pyrazolo[4,3-f]quinazolin-4-yl]naphthalen-2-ol], the IC50 against KRAS G12D and against KRAS WT was 0.1 to 10 µM in each case.

Turning to `CCc1c(F)ccc2cc(O)cc(-c3cc4nc(OC[C@@]56CCCN5C[C@H](F)C6)nc(N5CCCNCC5)c4c4cn(C)nc34)c12` [Example 20, 4-[9-(1,4-diazepan-1-yl)-2-methyl-7-[[(2R,8S)-2-fluoro-1,2,3,5,6,7-hexahydropyrrolizin-8-yl]methoxy]pyrazolo[4,3-f]quinazolin-4-yl]-5-ethyl-6-fluoro-naphthalen-2-ol], the IC50 against KRAS G12D is no more than 0.01 µM; against KRAS WT it was 0.01 to 0.1 µM.

As for `CCNC(=O)c1cc2n(n1)CCCN(c1nc(OC[C@@]34CCCN3C[C@H](F)C4)nc3cc(-c4cc(O)cc5ccc(F)c(CC)c45)c4nn(C)cc4c13)C2` [Example 21, N-ethyl-5-[4-(8-ethyl-7-fluoro-3-hydroxy-1-naphthyl)-2-methyl-7-[[(2R,8S)-2-fluoro-1,2,3,5,6,7-hexahydropyrrolizin-8-yl]methoxy]pyrazolo[4,3-f]quinazolin-9-yl]-4,6,7,8-tetrahydropyrazolo[1,5-a][1,4]diazepine-2-carboxamide], the IC50 on KRAS G12D and against KRAS WT was no more than 0.01 µM throughout.

For `CCc1c(F)ccc2cc(O)cc(-c3cc4nc(OC[C@@]56CCCN5C[C@H](F)C6)nc(N5CCCn6nc(C(=O)N(C)C)cc6C5)c4c4cn(C)nc34)c12` [Example 22, 5-[4-(8-ethyl-7-fluoro-3-hydroxy-1-naphthyl)-2-methyl-7-[[(2R,8S)-2-fluoro-1,2,3,5,6,7-hexahydropyrrolizin-8-yl]methoxy]pyrazolo[4,3-f]quinazolin-9-yl]-N,N-dimethyl-4,6,7,8-tetrahydropyrazolo[1,5-a][1,4-]diazepine-2-carboxamide], the IC50 against KRAS G12D and on KRAS WT was no more than 0.01 µM throughout.

With `CCc1c(F)ccc2cc(O)cc(-c3cc4nc(OC[C@@]56CCCN5C[C@H](F)C6)nc(N5CCCn6nc(C(=O)N7CCCC7)cc6C5)c4c4cn(C)nc34)c12` [Example 23, [5-[4-(8-ethyl-7-fluoro-3-hydroxy-1-naphthyl)-2-methyl-7-[[(2R,8S)-2-fluoro-1,2,3,5,6,7-hexahydropyrrolizin-8-yl]methoxy]pyrazolo-[4,3-f]quinazolin-9-yl]4,6,7,8-tetrahydropyrazolo[1,5-a][1,4]diazepin-2-yl]-pyrrolidin-1-yl-methanone], the IC50 against KRAS G12D and against KRAS WT was no more than 0.01 µM each time.

As for `CCc1c(F)ccc2cc(O)cc(-c3cc4nc(OC[C@@]56CCCN5C[C@H](F)C6)nc(N5CCCn6nc(C(=O)N7CCOCC7)cc6C5)c4c4cn(C)nc34)c12` [Example 24, [5-[4-(8-ethyl-7-fluoro-3-hydroxy-1-naphthyl)-2-methyl-7-[[(2R,8S)-2-fluoro-1,2,3,5,6,7-hexahydropyrrolizin-8-yl]methoxy]pyrazolo[4,3-f]quinazolin-9-yl]-4,6,7,8-tetrahydropyrazolo[1,5-a][1,4]diazepin-2-yl]-morpholino-methanone], the half-maximal inhibitory concentration (IC50) on KRAS G12D and against KRAS WT was no more than 0.01 µM in each case.

In the case of `CCc1c(F)ccc2cc(O)cc(-c3cc4nc(OC[C@@]56CCCN5C[C@H](F)C6)nc(N5CC6CNCC6C5)c4c4cn(C)nc34)c12` (stereo partly drawn) [Example 25, 4-(2,7-diazaspiro[4.4]nonan-2-yl)-6-(8-ethyl-7-fluoro-3-hydroxy-1-naphthyl)-2-[[(2R,8S)-2-fluoro-1,2,3,5,6,7-hexahydropyrrolizin-8-yl]methoxy]-7H-pyrrolo[3,4-d]pyrimidin-5-one], the IC50 was no more than 0.01 µM against KRAS G12D and 0.1 to 10 µM against KRAS WT.

Consider `CCc1c(F)ccc2cc(O)cc(-c3cc4nc(OCC56CCCN5CCC6)nc(N5CCOCC(C)(O)C5)c4c4cn(C)nc34)c12` (stereo not drawn) [Example 26, 4-[4-(8-ethyl-7-fluoro-3-hydroxy-1-naphthyl)-7-(1,2,3,5,6,7-hexahydropyrrolizin-8-ylmethoxy)-2-methyl-pyrazolo[4,3-f]quinazolin-9-yl]-6-methyl-1,4-oxazepan-6-ol], for which the IC50 against KRAS G12D and on KRAS WT was no more than 0.01 µM throughout.

As to `CCc1c(F)ccc2cc(O)cc(-c3cc4nc(OCC56CCCN5CCC6)nc(N5CCCC(C)(O)CC5)c4c4cn(C)nc34)c12` (stereo not drawn) [Example 27, 1-[4-(8-ethyl-7-fluoro-3-hydroxy-1-naphthyl)-7-(1,2,3,5,6,7-hexahydropyrrolizin-8-ylmethoxy)-2-methyl-pyrazolo[4,3-f]quinazolin-9-yl]-4-methyl-azepan-4-ol], the IC50 on KRAS G12D and on KRAS WT was 0.1 to 10 µM in each case.

Turning to `CCc1c(F)ccc2cc(O)cc(-c3cc4nc(OCC56CCCN5CCC6)nc(N5CCCC(C)(O)C5)c4c4cn(C)nc34)c12` (stereo not drawn) [Example 28, 1-[4-(8-ethyl-7-fluoro-3-hydroxy-1-naphthyl)-7-(1,2,3,5,6,7-hexahydropyrrolizin-8-ylmethoxy)-2-methyl-pyrazolo[4,3-f]quinazolin-9-yl]-3-methyl-piperidin-3-ol], the IC50 on KRAS G12D and against KRAS WT was no more than 0.01 µM throughout.

In the case of `CCc1c(F)ccc2cc(O)cc(-c3cc4nc(OC[C@@]56CCCN5C[C@H](F)C6)nc(N5CCCC(C)(O)CC5)c4c4cn(C)nc34)c12` (stereo partly drawn) [Example 29, 1-[4-(8-ethyl-7-fluoro-3-hydroxy-1-naphthyl)-7-[[(2R,8S)-2-fluoro-1,2,3,5,6,7-hexahydropyrrolizin-8-yl]methoxy]-2-methyl-pyrazolo[4,3-f]quinazolin-9-yl]-4-methyl-azepan-4-ol], the “KRAS^G12D NEA” value at KRAS G12D is reported as “D (<49% inhibition at 10 μM)”. On KRAS WT, this compound had an IC50 of 0.1 to 10 µM.
